Experimental data reported in patent US20150202179A1, “FATTY ACID DERIVATIVES FOR USE IN A METHOD OF TREATING DEPRESSION AND ASSOCIATED CONDITIONS” (YISSUM RESEARCH DEVELOPMENT COMPANY OF THE HEBREW …, priority 2012, published 2015).
Entries after “also recorded” stand apart in the source; their conditions may differ.

Assays:
serotonin (5HT) levels = assay: Serotonin (5HT) determination in brain tissue by HPLC with electrochemical detection; type: in vivo, mice; conditions: for 5HT: ng/g wet tissue +/− SEM; for 5HT levels in the hippocampus vs. control / 5HT levels in the hypothalamus vs. control: result in words
Description: (§1) Solution of DHBA as internal standard in the concentration of: 1 μg/ml in 0.1M perchloric acid, were prepared. Standard solutions of NE and 5HT in the concentration of 1-0.1 μg/ml in 0.1M perchloric acid were prepared.
(§2) Tissues (hypothalamus and hippocampus) obtained from 6-8 mice were dissected on ice surface and kept at −80 C. Hypothalamus (HT) or hippocampus (HC) from 1 mice were weighted (weight of HT −10-20 mg, HC 30-40 mg) and placed in eppendorf micro-centrifuge tube, 1.5 ml. To each tube was added 120-160 μl of ice cold solution of Perchloric acid and DHBA, homogenized in ice bath on Sonics vibra cell, 3×20 sec., 0.4 watts and centrifuged at 14,000×g at 4° C. 10 min. Supernatant gained was stored in ice before analysis.
(§3) The HPLC system consisted of Jasco PU-980 pump, Jasco AS-950-10 autosampler cooled at 4° C., H3 ODS-125A 3 μm 125 mm×4.6 mm i.d. analytical column (Hichrom, UK) were used. Electrochemical detector Coulochem ESA 5100A with analytical cell model 5011 was used for control detector voltage and record the current. Working electrode was set at potential +350 mV. Control and data collection/processing were handled through Borwin chromatography software.
(§4) The mobile phase composition: A stock buffer was prepared as follows: 20 mM sodium dihydrogenorthophosphate, EDTA 3 mg/l, 1-heptanesulfonic acid 1 g/l were dissolved in 1 liter deionized distilled water and buffered to pH 3.7 using concentrated phosphoric acid. To prepare the mobile phase buffer was mixed with acetonitrile (Baker HPLC analyzed) in the ratio 85:15 (v/v), filtered through a 0.2 μm membrane filter and degassed under vacuum after mixing. Mobile phase flow rate 1 ml/min. Injection volume 20 μl, retention time for DHBA 4.2 min., norepinephrine—3.1 min., 5HT 8.6 min. For calibration curve 1 ug/ml solution of DHBA together with 1.0-0.1 μg/ml solutions of 5HT and NE were used. The ratio between 5HT or NE and DHBA used to calculate the level of 5HT and NE in the sample. Date are given in ng/g wet tissue +/−SEM.

[1] = test system: Norepinephrine (NE) levels; assay: Norepinephrine (NE) determination in brain tissue by HPLC with electrochemical detection; type: in vivo, mice; conditions: for NE: ng/g wet tissue +/− SEM; for norepinephrine levels in the hippocampus vs. control / norepinephrine levels in the hypothalamus vs. control: result in words
Description: as §1, §2, §3, §4

[2] = Tail Suspension Test, separated BALB/c mice (model for depression); type: in vivo; conditions: compounds 1 mg/kg i.p., imipramine 10 mg/kg i.p.; day 7; in relation to vehicle
Excerpt: Tail suspension test (TST): Animals are suspended upside down by adhesive tape placed 1 cm from the tail tip. The elevation of the animal is 50 cm from the nearest surface. […] Statistical analysis compares the magnitude of immobility (in seconds) between different treatment groups. In this test, antidepressants characteristically cause an increase of the time fraction spent by the animal as active at the expense of the inactivity period.
50, 2 month old female BALB/c mice were separated (each mouse in a different cage) for 9 days period (a model for depression). On days 7, 8, 9, 34-40 mice were administered with either vehicle or compounds X, 12 and 15 (1 mg/kg i.p.) or imipramine 10 mg/kg (anti-depressant) i.p. and tested in the Tail suspension test on day 7 of the experiment (10 mice per group).

[3] = Forced Swim Test (FST), separated BALB/c mice; type: in vivo; conditions: compounds 1 mg/kg i.p., imipramine 10 mg/kg i.p.; day 8; in relation to vehicle
Description: Forced swim test (FST): The animal is placed in a circular, transparent, plexiglass tank measuring 21 cm in diameter and 46 cm in height containing water 15 cm high, maintained at 23-25° C. […] Also measured is the latency period, the time elapsing, for each animal from immersion in the water tank until the first occurrence of immobility. Since climbing activity is minimal in mice, […].
50, 2 month old female BALB/c mice, 10 mice per group, on ad libitum diet were separated (each mouse in a different cage) for 9 days (Separation Stress, a model for depression). On the 7, 8, 9, 34-40 days mice were administered with either vehicle or compounds x, 12 and 15 (1 mg/kg i.p.) or imipramine 10 mg/kg (antidepressant) i.p. and tested in the forced swim test (FST) on day 8.

[4] = Eight Arm Maze Test, separated BALB/c mice; type: in vivo; conditions: compounds 1 mg/kg i.p., imipramine 10 mg/kg i.p.; day 34-38; in relation to vehicle (p<0.05)
Description: 2 month old female BALB/c mice 10 mice per group were separated (each mouse in a different cage) for 9 days (a model for depression). On days 7, 8, 9, 34-40 days mice were administered with either vehicle or compounds X, 12 and 15 (1 mg/kg i.p.) or imipramine 10 mg/kg (anti-depressant) i.p. and tested in the Eight Arm Maze from day 34-38.

Molecule | 5HT (serotonin (5HT) levels; Hippocampus) | 5HT levels in the hippocampus vs. control (serotonin (5HT) levels) | NE ([1]; Hippocampus) | norepinephrine levels in the hippocampus vs. control [1] | 5HT (serotonin (5HT) levels; Hypothalamus) | 5HT levels in the hypothalamus vs. control (serotonin (5HT) levels) | other results
CCCCC/C=C\C/C=C\CCCCCCCC(=O)N[C@H](CO)CC(C)C [Compound 4, Linoleoyl-L-Leucinol amide] | 380.4 ± 12.8 ng/g | significantly enhanced; also recorded: increased significantly | 302.5 ± 22.4 ng/g | significantly enhanced; also recorded: increase significantly | – | – | –
CCCCCCCC/C=C\CCCCCCCCOC(=O)N[C@@H](CO)C(C)C [Compound 13, Oleyloxycarbonyl-D-Valinol amide] | 300.1 ± 41.5 ng/g | significantly enhanced; also recorded: increased significantly | 396.7 ± 44.7 ng/g | significantly enhanced; also recorded: increase significantly | 831.3 ± 29.1 ng/g | increased significantly | NE ([1]; Hypothalamus): 1002 ± 62.7 ng/g
CCCCCCCC/C=C\CCCCCCCC(=O)N[C@@H](CO)C(C)C [Compound 11, Oleoyl-D-Valinol] | – | – | – | – | 777.8 ± 79.1 ng/g | increased significantly | –
CCCCC/C=C\C/C=C\CCCCCCCC(=O)N[C@H](CO)C(C)C [Compound 10, Linoleoyl-L-Valinol amide] | 299.2 ± 22.8 ng/g | significantly enhanced; also recorded: increased significantly | 407.9 ± 48.9 ng/g | significantly enhanced; also recorded: increase significantly | – | – | –
CCCCCCCC/C=C/CCCCCCCC(=O)N[C@H](CO)C(C)C [Compound 7, Elaidoyl-L-Valinol amide] | 335.4 ± 45.4 ng/g | increased significantly | – | – | 856.5 ± 115.2 ng/g | increased significantly | –
CCCCCCCC/C=C\CCCCCCCC(=O)N[C@H](CO)Cc1ccccc1 [Compound 26, Oleoyl-L-phenyl alaninol] | – | – | – | increase significantly | – | – | –
Oleylamino-D-2-hydroxyvaline amide [Compound 19] | 296.3 ± 33.2 ng/g | significantly enhanced; also recorded: increased significantly | 296.4 ± 24.8 ng/g | significantly enhanced; also recorded: increase significantly | – | – | –
CN(C)CCCN1c2ccccc2CCc2ccccc21 [imipramine, reference compound] | – | – | – | – | – | – | activity in Tail Suspension Test [2]: significantly enhanced activity; swimming activity in forced swim test [3]: significantly enhanced swimming activity; performance in the Eight Arm Maze [4]: significantly improved performance
Oleyl-amine-carbonyl-D-valinol [Compound 14] | 344 ± 32.4 ng/g | increased significantly | 313.9 ± 48 ng/g | increase significantly | 876.4 ± 126.8 ng/g | increased significantly | 5HT levels in the hippocampus vs. control (serotonin (5HT) levels; listed as compound 14): significantly enhanced; 5HT levels in the hypothalamus vs. control (serotonin (5HT) levels; listed as compound 14): significantly enhanced; NE ([1]; Hypothalamus): 1139.4 ± 43.3 ng/g; norepinephrine levels in the hippocampus vs. control ([1]; listed as compound 14): significantly enhanced; norepinephrine levels in the hypothalamus vs. control [1]: increased significantly; norepinephrine levels in the hypothalamus vs. control ([1]; listed as compound 14): significantly enhanced
CCCCCCCC/C=C\CCCCCCCC(=O)N[C@H](CO)CC(C)C [Compound 5, Oleoyl-L-Leucinol amide] | 419.8 ± 67.4 ng/g | increased significantly | – | – | 767.2 ± 51.9 ng/g | – | –
